Measurements taken from patent publication US12378211B2, “Carbonic anhydrase inhibitors and antibiotics against multidrug resistant bacteria” (Purdue Research Foundation, priority 2018, dated 2025).
≈ marks a conversion by molar mass, not a printed value. Like-named read-outs stand apart in the source and are kept apart here.

What was measured:
[1] = tested on: Enterococcus faecalis—S613 HM-334; assay: MIC, broth microdilution in TSB; format: cell-based; conditions: Enterococcus, TSB
Summary of the method: (§1)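 CLSI broth microdilution: overnight agar-grown enterococci adjusted to 0.5 McFarland, diluted in TSB to about 5×10^5 CFU/mL, then exposed to serially diluted compounds. Incubated aerobically at 37 °C for 18-20 h. MIC is the lowest concentration giving no visible growth.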

[2] = tested on: Enterococcus faecium E417-HM-965; assay: MIC, broth microdilution in TSB; format: cell-based; conditions: Enterococcus faecium, E417HM965, TSB
Summary of the method: as §1

[3] = tested on: Enterococcus faecium Patient #2-1-NR-31909; assay: MIC, broth microdilution in TSB; format: cell-based; conditions: Enterococcus faecium, TSB
Summary of the method: as §1

[4] = tested on: Enterococcus faecium Patient #3-1 NR-31912; assay: MIC, broth microdilution in TSB; format: cell-based; conditions: Enterococcus faecium, TSB
Summary of the method: as §1

[5] = tested on: Enterococcus fecalis Strain MMH594-NR31975; assay: MIC, broth microdilution in TSB; format: cell-based; conditions: Enterococcus, TSB
Summary of the method: as §1

[6] = tested on: Enterococcus fecalis Strain SF 24397 NR31970; assay: MIC, broth microdilution in TSB; format: cell-based; conditions: Enterococcus, TSB
Summary of the method: as §1

[7] = tested on: Enterococcus fecalis Strain SF 28073-NR31972; assay: MIC, broth microdilution in TSB; format: cell-based; conditions: Enterococcus, TSB
Summary of the method: as §1

[8] = tested on: Enterococcus fecalis Strain SF24413 NR31971; assay: MIC, broth microdilution in TSB; format: cell-based; conditions: Enterococcus, TSB
Summary of the method: as §1

[9] = tested on: MRSA NRS 384 (MRSA USA300); assay: MIC against Staphylococci, broth microdilution; format: cell-based, Staphylococcus aureus; conditions: Staphylococcus aureus; TSB; read-out: MIC
Description: (§2) The minimum inhibitory concentrations (MICs) of the compounds and control drugs were determined using the broth microdilution method, according to guidelines outlined by the Clinical and Laboratory Standards Institute (CLSI) 1. Staphylococci strains were grown aerobically overnight on tryptone soya agar plates at 37° C., afterwards a bacterial solution equivalent to 0.5 McFarland standard was prepared and diluted in tryptone soy broth (TSB) to achieve a bacterial concentration of about 5×10^5 CFU/mL and seeded in 96-well well plates. Compounds and control drugs were added in the first row of the 96-well plates and serially diluted along the plates. Plates were then incubated aerobically at 37° C. for 18-20 hours. MICs reported in Table 2 are the minimum concentration of the compounds/control drugs that could inhibit completely the visual growth of the bacteria.

[10] = tested on: Staphylococcus epidermidis NRS 101; assay: MIC against Staphylococci, broth microdilution; format: cell-based; conditions: Staphylococcus epidermidis, NRS101; TSB; read-out: MIC
Description: as §2

[11] = tested on: Bifidobacterium longum subsp. Longum—44B HM 845; assay: MIC against human normal gut microbiota; format: cell-based; conditions: Bifidobacterium longum; BHIS broth, anaerobic, 48 hours; read-out: MIC
Description: (§3) Three different bacterial strains were used in this experiment; Bifidobacterium (anaerobic Gram positive bacteria), Bacteroides (anaerobic Gram negative bacteria) and Lactobacillus (microaerophilic Gram positive bacteria). Bifidobacterium and Bacteroides were first grown for 48 hours at 37° C., anaerobically using brain heart infusion supplemented (BHIS) agar (Brain heart infusion agar supplemented with hemin, vitamin K and L-cysteine). Lactobacillus was cultivated on MRS agar and incubated in presence of 5% CO2 for 48 hours at 37° C. Each bacterium was suspended in phosphate buffered saline (PBS) to produce a suspension with optical density that matches 0.5 McFarland standard and diluted in brain heart infusion supplemented broth (for Bifidobacterium and Bacteroides) or in MRS broth (for Lactobacillus) to achieve bacterial concentration of approximately 5×10^5 CFU/ml. Bacteria were then seeded in 96-well plates containing serial dilutions of the compounds and incubated as mentioned previously for 48 hours.

[12] = tested on: Lactobacillus casei ATCC 334; assay: MIC against human normal gut microbiota; format: cell-based; conditions: Lacticaseibacillus casei, ATCC334; MRS broth, 5% CO2, 48 hours; read-out: MIC
Description: as §3

[13] = tested on: Lactobacillus gasseri EX336960VC03 HIM-400; assay: MIC against human normal gut microbiota; format: cell-based; conditions: Lactobacillus gasseri; MRS broth, 5% CO2, 48 hours; read-out: MIC
Description: as §3

[14] = tested on: Mutant-2 of Enterococcus fecalis NR 31975; assay: microbe, parasite or virus in culture; format: cell-based; conditions: Enterococcus
[15] = tested on: Mutant-3 of Enterococcus fecalis NR 31975; assay: microbe, parasite or virus in culture; format: cell-based; conditions: Enterococcus
[16] = tested on: Mutant-4 of Enterococcus fecalis NR 31975; assay: microbe, parasite or virus in culture; format: cell-based; conditions: Enterococcus
[17] = tested on: Mutant-5 of Enterococcus fecalis NR 31975; assay: microbe, parasite or virus in culture; format: cell-based; conditions: Enterococcus
[18] = tested on: Mutant-6 of Enterococcus fecalis NR 31975; assay: microbe, parasite or virus in culture; format: cell-based; conditions: Enterococcus
[19] = tested on: Mutant-7 of Enterococcus fecalis NR 31975; assay: microbe, parasite or virus in culture; format: cell-based; conditions: Enterococcus
[20] = tested on: Mutant-8 of Enterococcus fecalis NR 31975; assay: microbe, parasite or virus in culture; format: cell-based; conditions: Enterococcus
[21] = tested on: Mutant-9 of Enterococcus fecalis NR 31975; assay: microbe, parasite or virus in culture; format: cell-based; conditions: Enterococcus
[22] = tested on: Mutant-11 of Enterococcus fecalis NR 31975; assay: microbe, parasite or virus in culture; format: cell-based; conditions: Enterococcus
[23] = tested on: Mutant-12 of Enterococcus fecalis NR 31975; assay: microbe, parasite or virus in culture; format: cell-based; conditions: Enterococcus
[24] = tested on: Mutant-13 of Enterococcus fecalis NR 31975; assay: microbe, parasite or virus in culture; format: cell-based; conditions: Enterococcus
[25] = tested on: Mutant-14 of Enterococcus fecalis NR 31975; assay: microbe, parasite or virus in culture; format: cell-based; conditions: Enterococcus
[26] = tested on: Mutant-15 of Enterococcus fecalis NR 31975; assay: microbe, parasite or virus in culture; format: cell-based; conditions: Enterococcus

Compound	MIC ([1]; Table 1, read-out: MIC)	MIC ([1]; Table 7, read-out: MIC in TSB)	MIC ([2]; Table 1, read-out: MIC)	MIC ([2]; Table 7, read-out: MIC in TSB)	MIC ([3]; Table 1, read-out: MIC)	MIC ([3]; Table 7, read-out: MIC in TSB)	MIC ([4]; Table 1, read-out: MIC)	MIC ([5]; Table 1, read-out: MIC)	MIC ([5]; Table 7, read-out: MIC in TSB)	MIC ([6]; Table 1, read-out: MIC)	MIC ([6]; Table 7, read-out: MIC in TSB)	MIC ([7]; Table 1, read-out: MIC)	MIC ([7]; Table 7, read-out: MIC in TSB)	MIC ([8]; Table 1, read-out: MIC)	MIC ([8]; Table 7, read-out: MIC in TSB)	MIC [9]	MIC [10]	MIC [11]	MIC [12]	MIC [13]	also measured
CC(=O)Nc1nnc(S(N)(=O)=O)s1 [Acetazolamide, reference compound]	2 µg/mL (≈ 9 µM)	2 µg/mL (≈ 9 µM)	2 µg/mL (≈ 9 µM)	2 µg/mL (≈ 9 µM)	2 µg/mL (≈ 9 µM)	2 µg/mL (≈ 9 µM)	2 µg/mL (≈ 9 µM)	4 µg/mL (≈ 18 µM)	4 µg/mL (≈ 18 µM)	2 µg/mL (≈ 9 µM)	2 µg/mL (≈ 9 µM)	4 µg/mL (≈ 18 µM)	4 µg/mL (≈ 18 µM)	4 µg/mL (≈ 18 µM)	4 µg/mL (≈ 18 µM)	> 64 µg/mL	> 64 µg/mL	> 64 µg/mL	> 64 µg/mL	> 64 µg/mL	MIC ([4]; Table 7, read-out: MIC in TSB): 2 µg/mL (≈ 9 µM); MIC [14]: 16 µg/mL (≈ 72 µM); MIC [15]: 32 µg/mL (≈ 144 µM); MIC [16]: 32 µg/mL (≈ 144 µM); MIC [17]: 32 µg/mL (≈ 144 µM); MIC [18]: 32 µg/mL (≈ 144 µM); MIC [19]: 16 µg/mL (≈ 72 µM); MIC [20]: 32 µg/mL (≈ 144 µM); MIC [21]: 16 µg/mL (≈ 72 µM); MIC [22]: 16 µg/mL (≈ 72 µM); MIC [23]: 32 µg/mL (≈ 144 µM); MIC [24]: 32 µg/mL (≈ 144 µM); MIC [25]: 32 µg/mL (≈ 144 µM); MIC [26]: 32 µg/mL (≈ 144 µM)
CC(C)(C)C(=O)Nc1nnc(S(N)(=O)=O)s1 [CAI0010, N-(5-Sulfamoyl-1,3,4-thiadiazol-2-yl) pivalamide]	0.5 µg/mL (≈ 1.89 µM)	0.125 µg/mL (≈ 0.473 µM)	0.5 µg/mL (≈ 1.89 µM)	0.25 µg/mL (≈ 0.946 µM)	0.5 µg/mL (≈ 1.89 µM)	0.125 µg/mL (≈ 0.473 µM)	1 µg/mL (≈ 3.78 µM)	1 µg/mL (≈ 3.78 µM)	0.25 µg/mL (≈ 0.946 µM)	0.5 µg/mL (≈ 1.89 µM)	0.25 µg/mL (≈ 0.946 µM)	0.5 µg/mL (≈ 1.89 µM)	0.5 µg/mL (≈ 1.89 µM)	0.5 µg/mL (≈ 1.89 µM)	0.25 µg/mL (≈ 0.946 µM)	> 64 µg/mL	> 64 µg/mL	> 64 µg/mL	> 64 µg/mL	> 64 µg/mL	MIC ([4]; Table 7, read-out: MIC in TSB): 0.25 µg/mL (≈ 0.946 µM); MIC [14]: 8 µg/mL (≈ 30.3 µM); MIC [15]: 4 µg/mL (≈ 15.1 µM); MIC [16]: 8 µg/mL (≈ 30.3 µM); MIC [17]: 4 µg/mL (≈ 15.1 µM); MIC [18]: 16 µg/mL (≈ 60.5 µM); MIC [19]: 4 µg/mL (≈ 15.1 µM); MIC [20]: 8 µg/mL (≈ 30.3 µM); MIC [21]: 8 µg/mL (≈ 30.3 µM); MIC [22]: 4 µg/mL (≈ 15.1 µM); MIC [23]: 8 µg/mL (≈ 30.3 µM); MIC [24]: 4 µg/mL (≈ 15.1 µM); MIC [25]: 4 µg/mL (≈ 15.1 µM); MIC [26]: 4 µg/mL (≈ 15.1 µM)
CC(C)C(=O)Nc1nnc(S(N)(=O)=O)s1 [CAI0011, N-(5-Sulfamoyl-1,3,4-thiadiazol-2-yl) isobutyramide]	2 µg/mL (≈ 7.99 µM)	2 µg/mL (≈ 7.99 µM)	1 µg/mL (≈ 4 µM)	1 µg/mL (≈ 4 µM)	1 µg/mL (≈ 4 µM)	1 µg/mL (≈ 4 µM)	1 µg/mL (≈ 4 µM)	2 µg/mL (≈ 7.99 µM)	2 µg/mL (≈ 7.99 µM)	2 µg/mL (≈ 7.99 µM)	2 µg/mL (≈ 7.99 µM)	2 µg/mL (≈ 7.99 µM)	2 µg/mL (≈ 7.99 µM)	2 µg/mL (≈ 7.99 µM)	2 µg/mL (≈ 7.99 µM)	> 64 µg/mL	> 64 µg/mL	> 64 µg/mL	> 64 µg/mL	> 64 µg/mL	MIC ([4]; Table 7, read-out: MIC in TSB): 1 µg/mL (≈ 4 µM)
CC(=O)NC[C@H]1CN(c2ccc(N3CCOCC3)c(F)c2)C(=O)O1 [Linezolid, reference compound]	1 µg/mL (≈ 2.96 µM)	1 µg/mL (≈ 2.96 µM)	–	–	–	–	–	1 µg/mL (≈ 2.96 µM)	1 µg/mL (≈ 2.96 µM)	1 µg/mL (≈ 2.96 µM)	1 µg/mL (≈ 2.96 µM)	1 µg/mL (≈ 2.96 µM)	1 µg/mL (≈ 2.96 µM)	1 µg/mL (≈ 2.96 µM)	1 µg/mL (≈ 2.96 µM)	2 µg/mL (≈ 5.93 µM)	≤ 0.5 µg/mL	≤ 0.5 µg/mL	1 µg/mL (≈ 2.96 µM)	2 µg/mL (≈ 5.93 µM)	MIC [14]: 4 µg/mL (≈ 11.9 µM); MIC [15]: 4 µg/mL (≈ 11.9 µM); MIC [16]: 4 µg/mL (≈ 11.9 µM); MIC [17]: 4 µg/mL (≈ 11.9 µM); MIC [18]: 4 µg/mL (≈ 11.9 µM); MIC [19]: 2 µg/mL (≈ 5.93 µM); MIC [20]: 8 µg/mL (≈ 23.7 µM); MIC [21]: 4 µg/mL (≈ 11.9 µM); MIC [22]: 4 µg/mL (≈ 11.9 µM); MIC [23]: 4 µg/mL (≈ 11.9 µM); MIC [24]: 4 µg/mL (≈ 11.9 µM); MIC [25]: 4 µg/mL (≈ 11.9 µM); MIC [26]: 8 µg/mL (≈ 23.7 µM)
